From patent publication US8183262B2, “Pyridine derivatives as mGluR2 antagonists” (Hoffmann-La Roche Inc., priority 2007, dated 2012)

SMILES | melting point
Nc1ncc(-c2cn(-c3nc(-c4cccc(C(F)(F)F)c4)cc(C(F)(F)F)n3)cn2)cn1 [Example 139, 5-{1-[4-Trifluoromethyl-6-(3-trifluoromethyl-phenyl)-pyrimidin-2-yl]-1H-imidazol-4-yl}-pyrimidin-2-ylamine] | 223 °C
Nc1ccc(-c2cccc(-c3nc(-c4cccc(C(F)(F)F)c4)cc(C(F)(F)F)n3)c2)cn1 [Example 140, 5-{3-[4-Trifluoromethyl-6-(3-trifluoromethyl-phenyl)-pyrimidin-2-yl]-phenyl}-pyridin-2-ylamine] | 162 °C
Nc1ccc(-c2cc(-c3nc(-c4cccc(C(F)(F)F)c4)cc(C(F)(F)F)n3)ccn2)cn1 [Example 141, 4-[4-Trifluoromethyl-6-(3-trifluoromethyl-phenyl)-pyrimidin-2-yl]-[2,3′]bipyridinyl-6′-ylamine] | 196 °C
Cc1nc(-c2ccc(N)nc2)cn1-c1nc(-c2ccc(C(F)(F)F)cc2)cc(C(F)(F)F)n1 [Example 142, 5-{2-Methyl-1-[4-trifluoromethyl-6-(4-trifluoromethyl-phenyl)-pyrimidin-2-yl]-1H-imidazol-4-yl}-pyridin-2-ylamine] | 285 °C
Cc1nc(-c2cnc(N)nc2)cn1-c1nc(-c2ccc(C(F)(F)F)cc2)cc(C(F)(F)F)n1 [Example 143, 5-{2-Methyl-1-[4-trifluoromethyl-6-(4-trifluoromethyl-phenyl)-pyrimidin-2-yl]-1H-imidazol-4-yl}-pyrimidin-2-ylamine] | 286.5 °C
Cc1cc(-c2ccc(Cl)c(Cl)c2)nc(-n2cnc(-c3cnc(N)nc3)c2)n1 [Example 144, 5-{1-[4-(3,4-Dichloro-phenyl)-6-methyl-pyrimidin-2-yl]-1H-imidazol-4-yl}-pyrimidin-2-ylamine] | 255.5 °C
Cc1cc(-c2ccc(Cl)c(Cl)c2)nc(-n2cnc(-c3ccc(N)nc3)c2)n1 [Example 145, 5-{1-[4-(3,4-Dichloro-phenyl)-6-methyl-pyrimidin-2-yl]-1H-imidazol-4-yl}-pyridin-2-ylamine] | 213 °C
Cc1cc(-c2ccc(Cl)c(Cl)c2)nc(-c2ccnc(-c3ccc(N)nc3)c2)n1 [Example 146, 4-[4-(3,4-Dichloro-phenyl)-6-methyl-pyrimidin-2-yl]-[2,3′]bipyridinyl-6′-ylamine] | 205 °C
Cc1cc(-c2ccc(Cl)c(Cl)c2)nc(-c2cccc(-c3ccc(N)nc3)c2)n1 [Example 147, 5-{3-[4-(3,4-Dichloro-phenyl)-6-methyl-pyrimidin-2-yl]-phenyl}-pyridin-2-ylamine] | 170.5 °C
FC(F)(F)c1ccc(-c2cc(C(F)(F)F)nc(-n3cnc(-c4cccnc4)n3)n2)cc1 [Example 149, 2-(3-Pyridin-3-yl-[1,2,4]triazol-1-yl)-4-trifluoromethyl-6-(4-trifluoromethyl-phenyl)-pyrimidine] | 190 °C
Cc1cc(-c2ccc(C(F)(F)F)cc2)nc(-n2cc(-c3ccc(N)nc3)nc2C)n1 [Example 150, 5-{2-Methyl-1-[4-methyl-6-(4-trifluoromethyl-phenyl)-pyrimidin-2-yl]-1H-imidazol-4-yl}-pyridin-2-ylamine] | 227.5 °C
Cc1cc(-c2ccc(C(F)(F)F)cc2)nc(-n2cnc(-c3ccc(N)nc3)n2)n1 [Example 151, 5-{1-[4-Methyl-6-(4-trifluoromethyl-phenyl)-pyrimidin-2-yl]-1H-[1,2,4]triazol-3-yl}-pyridin-2-ylamine] | 244 °C
CC(C)c1cc(-c2ccc(C(F)(F)F)cc2)nc(-n2cnc(-c3ccc(N)nc3)c2)n1 [Example 152, 5-{1-[4-Isopropyl-6-(4-trifluoromethyl-phenyl)-pyrimidin-2-yl]-1H-imidazol-4-yl}-pyridin-2-ylamine] | 274.5 °C
CC(C)c1cc(-c2ccc(C(F)(F)F)cc2)nc(-n2cnc(-c3cnc(N)nc3)c2)n1 [Example 153, 5-{1-[4-Isopropyl-6-(4-trifluoromethyl-phenyl)-pyrimidin-2-yl]-1H-imidazol-4-yl}-pyrimidin-2-ylamine] | 277 °C
Cc1c(-c2ccc(N)nc2)ncn1-c1nc(-c2ccc(C(F)(F)F)cc2)cc(C(F)(F)F)n1 [Example 154, 5-{5-Methyl-1-[4-trifluoromethyl-6-(4-trifluoromethyl-phenyl)-pyrimidin-2-yl]-1H-imidazol-4-yl}-pyridin-2-ylamine] | 252 °C
CC(C)(C)NS(=O)(=O)c1cccc(-c2cc(-c3nc(-c4ccc(C(F)(F)F)cc4)cc(C(F)(F)F)n3)ccn2)c1 [Example 156, N-tert-Butyl-3-{4-[4-trifluoromethyl-6-(4-trifluoromethyl-phenyl)-pyrimidin-2-yl]-pyridin-2-yl}-benzenesulfonamide] | 211 °C
NS(=O)(=O)c1cccc(-c2cccc(-c3nc(-c4ccc(C(F)(F)F)cc4)cc(C(F)(F)F)n3)c2)c1 [Example 157, 3′-[4-Trifluoromethyl-6-(4-trifluoromethyl-phenyl)-pyrimidin-2-yl]-biphenyl-3-sulfonic acid amide] | 267 °C

SMILES | melting point
NS(=O)(=O)c1cccc(-c2cc(-c3nc(-c4ccc(C(F)(F)F)cc4)cc(C(F)(F)F)n3)ccn2)c1 [Example 158, 3-{4-[4-Trifluoromethyl-6-(4-trifluoromethyl-phenyl)-pyrimidin-2-yl]-pyridin-2-yl}-benzenesulfonamide] | 237 °C
NS(=O)(=O)c1ccc(-c2cn(-c3nc(-c4ccc(C(F)(F)F)cc4)cc(C(F)(F)F)n3)cn2)cc1 [Example 159, 4-{1-[4-Trifluoromethyl-6-(4-trifluoromethyl-phenyl)-pyrimidin-2-yl]-1H-imidazol-4-yl}-benzenesulfonamide] | 292 °C
NS(=O)(=O)c1cccc(-c2cn(-c3nc(-c4ccc(C(F)(F)F)cc4)cc(C(F)(F)F)n3)cn2)c1 [Example 160, 3-{1-[4-Trifluoromethyl-6-(4-trifluoromethyl-phenyl)-pyrimidin-2-yl]-1H-imidazol-4-yl}-benzenesulfonamide] | 198 °C
NS(=O)(=O)c1ccc(-c2cccc(-c3nc(-c4ccc(C(F)(F)F)cc4)cc(C(F)(F)F)n3)c2)s1 [Example 161, 5-{3-[4-Trifluoromethyl-6-(4-trifluoromethyl-phenyl)-pyrimidin-2-yl]-phenyl}-thiophene-2-sulfonic acid amide] | 204 °C
CC(C)(C)NS(=O)(=O)c1ccc(-c2cc(-c3nc(-c4ccc(C(F)(F)F)cc4)cc(C(F)(F)F)n3)ccn2)s1 [Example 162, 5-{4-[4-Trifluoromethyl-6-(4-trifluoromethyl-phenyl)-pyrimidin-2-yl]-pyridin-2-yl}-thiophene-2-sulfonic acid tert-butylamide] | 237 °C
NS(=O)(=O)c1ccc(-c2cn(-c3nc(-c4ccc(C(F)(F)F)cc4)cc(C(F)(F)F)n3)cn2)s1 [Example 163, 5-{1-[4-Trifluoromethyl-6-(4-trifluoromethyl-phenyl)-pyrimidin-2-yl]-1H-imidazol-4-yl}-thiophene-2-sulfonic acid amide] | 281 °C
NS(=O)(=O)c1ccc(-c2cc(-c3nc(-c4ccc(C(F)(F)F)cc4)cc(C(F)(F)F)n3)ccn2)s1 [Example 164, 5-{4-[4-Trifluoromethyl-6-(4-trifluoromethyl-phenyl)-pyrimidin-2-yl]-pyridin-2-yl}-thiophene-2-sulfonic acid amide] | 262 °C
Cc1cc(-c2ccc(C(F)(F)F)cc2)nc(-c2cccc(-c3cccc(S(=O)(=O)NC(C)(C)C)c3)c2)n1 [Example 165, 3′-[4-Methyl-6-(4-trifluoromethyl-phenyl)-pyrimidin-2-yl]-biphenyl-3-sulfonic acid tert-butylamide] | 163 °C
Cc1cc(-c2ccc(Cl)cc2)nc(-c2cccc(-c3cccc(S(N)(=O)=O)c3)c2)n1 [Example 166, 3′-[4-(4-Chloro-phenyl)-6-methyl-pyrimidin-2-yl]-biphenyl-3-sulfonic acid amide] | 221 °C
Cc1cc(-c2ccc(C(F)(F)F)cc2)nc(-c2ccnc(-c3cccc(S(N)(=O)=O)c3)c2)n1 [Example 168, 3-{4-[4-Methyl-6-(4-trifluoromethyl-phenyl)-pyrimidin-2-yl]-pyridin-2-yl}-benzenesulfonamide] | 218.5 °C
CC(C)(C)NS(=O)(=O)c1ccc(-c2cccc(-c3nc(-c4ccc(Cl)cc4)cc(C(F)(F)F)n3)c2)s1 [Example 169, 5-{3-[4-(4-Chloro-phenyl)-6-trifluoromethyl-pyrimidin-2-yl]-phenyl}-thiophene-2-sulfonic acid tert-butylamide] | 197.5 °C
NS(=O)(=O)c1ccc(-c2cc(-c3nc(-c4ccc(Cl)cc4)cc(C(F)(F)F)n3)ccn2)s1 [Example 170, 5-{4-[4-(4-Chloro-phenyl)-6-trifluoromethyl-pyrimidin-2-yl]-pyridin-2-yl}-thiophene-2-sulfonic acid amide] | 290 °C
NS(=O)(=O)c1ccc(-c2cn(-c3nc(-c4ccc(Cl)cc4)cc(C(F)(F)F)n3)cn2)s1 [Example 171, 5-{1-[4-(4-Chloro-phenyl)-6-trifluoromethyl-pyrimidin-2-yl]-1H-imidazol-4-yl}-thiophene-2-sulfonic acid amide] | 284 °C
Cc1cc(-c2ccc(C(F)(F)F)cc2)nc(-c2cccc(-c3ccc(S(N)(=O)=O)s3)c2)n1 [Example 172, 5-{3-[4-Methyl-6-(4-trifluoromethyl-phenyl)-pyrimidin-2-yl]-phenyl}-thiophene-2-sulfonic acid amide] | 225 °C
Cc1cc(-c2ccc(Cl)cc2)nc(-c2cccc(-c3ccc(S(N)(=O)=O)s3)c2)n1 [Example 173, 5-{3-[4-(4-Chloro-phenyl)-6-methyl-pyrimidin-2-yl]-phenyl}-thiophene-2-sulfonic acid amide] | 227 °C
NS(=O)(=O)c1ccc(-c2cccc(-c3nc(-c4ccc(Cl)cc4)cc(C(F)(F)F)n3)c2)s1 [Example 174, 5-{3-[4-(4-Chloro-phenyl)-6-trifluoromethyl-pyrimidin-2-yl]-phenyl}-thiophene-2-sulfonic acid amide] | 226 °C
